Assay results from PubChem BioAssay AID248 (DTP/NCI, 2004).
Values joined by “and” are separate entries in the source; they are usually repeats but may differ in a detail not shown here. Identical values can stand only once. Toxic doses and inconclusive results are not listed. Rule as the data show it: active = T/C of 150% or more; inactive = T/C below 125%.

Test system: L1210 leukemia ip in BDF1 mice, survival T/C
Experiment: NCI In Vivo Anticancer Drug Screen. Data for tumor model L1210 Leukemia (intraperitoneal) in B6D2F1 (BDF1) mice
Settings: endpoint: mean survival time, higher = longer survival
How it was run: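 Value reflects the ratio of survival in compound-treated mice to survival in vehicle-treated controls, with both groups carrying the same transplanted tumor.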

Measured: T/C

COC(=O)c1cc2nc(C(C)C)n(Cc3ccccc3)c2cc1C(=O)OC
inactive: dose: 100.0 mg/kg/injection, schedule: Q01DX001 (ip), vehicle: other 99 % of control | dose: 100.0 mg/kg/injection, schedule: Q01DX009 (ip), vehicle: other 104 % of control and 87 % of control | dose: 100.0 mg/kg/injection, schedule: Q04DX002 (ip), vehicle: Klucel (hydroxypropylcellulose) (HPC) 105 % of control | dose: 100.0 mg/kg/injection, schedule: Q04DX002 (ip), vehicle: other 102 % of control and 91 % of control | dose: 100.0 mg/kg/injection, schedule: Q04DX003 (ip), vehicle: other 107 % of control | dose: 200.0 mg/kg/injection, schedule: Q01DX001 (ip), vehicle: other 100 % of control | dose: 200.0 mg/kg/injection, schedule: Q01DX009 (ip), vehicle: other 101 % of control and 90 % of control | dose: 200.0 mg/kg/injection, schedule: Q04DX002 (ip), vehicle: Klucel (hydroxypropylcellulose) (HPC) 98 % of control | dose: 200.0 mg/kg/injection, schedule: Q04DX002 (ip), vehicle: other 95 % of control and 108 % of control | dose: 200.0 mg/kg/injection, schedule: Q04DX003 (ip), vehicle: other 109 % of control | dose: 400.0 mg/kg/injection, schedule: Q01DX001 (ip), vehicle: other 89 % of control | dose: 400.0 mg/kg/injection, schedule: Q01DX009 (ip), vehicle: other 97 % of control and 106 % of control | dose: 400.0 mg/kg/injection, schedule: Q04DX002 (ip), vehicle: Klucel (hydroxypropylcellulose) (HPC) 102 % of control | dose: 400.0 mg/kg/injection, schedule: Q04DX002 (ip), vehicle: other 95 % of control and 107 % of control | dose: 400.0 mg/kg/injection, schedule: Q04DX003 (ip), vehicle: other 105 % of control

Cc1ccc(NC(=O)COc2ccc(Cl)cc2Cl)cc1Cl
inactive: dose: 25.0 mg/kg/injection, schedule: Q01DX009 (ip), vehicle: saline with Tween-80 91 % of control | dose: 50.0 mg/kg/injection, schedule: Q01DX009 (ip), vehicle: saline with Tween-80 89 % of control | dose: 100.0 mg/kg/injection, schedule: Q01DX009 (ip), vehicle: saline with Tween-80 86 % of control | dose: 200.0 mg/kg/injection, schedule: Q01DX009 (ip), vehicle: saline with Tween-80 87 % of control | dose: 400.0 mg/kg/injection, schedule: Q01DX009 (ip), vehicle: saline with Tween-80 88 % of control

CC(=O)Nc1cc(F)c([N+](=O)[O-])cc1[N+](=O)[O-]
inactive: dose: 0.62 mg/kg/injection, schedule: Q01DX009 (ip), vehicle: saline 96 % of control | dose: 1.25 mg/kg/injection, schedule: Q01DX009 (ip), vehicle: saline 102 % of control | dose: 2.5 mg/kg/injection, schedule: Q01DX009 (ip), vehicle: saline 93 % of control | dose: 2.5 mg/kg/injection, schedule: Q01DX015 (ip), vehicle: carboxymethylcellulose (CMC) 95 % of control | dose: 3.13 mg/kg/injection, schedule: Q04DX003 (ip), vehicle: saline with Tween-80 106 % of control | dose: 5.0 mg/kg/injection, schedule: Q01DX009 (ip), vehicle: saline 104 % of control | dose: 5.0 mg/kg/injection, schedule: Q01DX015 (ip), vehicle: carboxymethylcellulose (CMC) 95 % of control | dose: 6.25 mg/kg/injection, schedule: Q04DX003 (ip), vehicle: saline with Tween-80 90 % of control | dose: 10.0 mg/kg/injection, schedule: Q01DX009 (ip), vehicle: saline with Tween-80 92 % of control | dose: 10.0 mg/kg/injection, schedule: Q01DX009 (ip), vehicle: saline 96 % of control | dose: 10.0 mg/kg/injection, schedule: Q01DX015 (ip), vehicle: carboxymethylcellulose (CMC) 91 % of control | dose: 12.5 mg/kg/injection, schedule: Q04DX003 (ip), vehicle: saline with Tween-80 94 % of control | dose: 12.5 mg/kg/injection, schedule: Q04DX003 (ip), vehicle: saline 86 % of control | dose: 20.0 mg/kg/injection, schedule: Q01DX009 (ip), vehicle: saline with Tween-80 103 % of control | dose: 25.0 mg/kg/injection, schedule: Q04DX003 (ip), vehicle: saline with Tween-80 105 % of control | dose: 50.0 mg/kg/injection, schedule: Q01DX001 (ip), vehicle: saline 104 % of control and 106 % of control | dose: 100.0 mg/kg/injection, schedule: Q01DX001 (ip), vehicle: saline 95 % of control and 91 % of control | dose: 200.0 mg/kg/injection, schedule: Q01DX001 (ip), vehicle: saline 112 % of control | dose: 400.0 mg/kg/injection, schedule: Q01DX001 (ip), vehicle: saline 106 % of control
